Where two headings read alike, the source gives them in different places.
Key:
[1] = Plasma protein binding (fup), rapid equilibrium dialysis; assay type: in vitro ADME, human
Description: (differing in 2 donors) were used for activity and microsomal binding assays, respectively.
The human biological samples were sourced ethically, and their research use was in accord with the terms of the informed consents under an IRB/EC approved protocol.
Determination of plasma protein binding (fup):
Human plasma (male, K2EDTA) was obtained from BioIVT (Baltimore, MD, USA). A pool of n=20 donors was prepared in-house (batch: 16062022). The plasma protein binding of compounds in human was determined by equilibrium dialysis using the rapid equilibrium dialysis (RED) device (Thermo […]
Frozen blank human plasma […]
solution to a final concentration of 1 µM (0.5 % DMSO). 300 µ L of the fortified plasma samples were subjected to dialysis against 500 µL PBS buffer at pH 7.4, for 6 h at 37 °C in triplicate. After dialysis, 200 µl aliquots of the buffer and the plasma compartments were transferred into micronic tubes. To minimize the potential for non -specific binding to the micronic tubes the buffer sam ples were collected on to 50µl of 10 % bovine serum albumin (BSA). For the assessment of test compound stability in plasma, 300 µl aliquots of the spiked plasma solutions were transferred into micronic tubes and incubated in an air heated incubator at 37°C without shaking for 4 and 20 hours. The remaining spiked protein solutions were frozen and used to measure the initial start concentration ( C0) to calculate the recovery. Sample analysis was achieved by LC -MS/MS and absolute quantification of the drug lev els in the buffer and plasma compartments was achieved via a matrix matched calibration curve (in the presence of an internal standard tolbutamide). All buffer and plasma sample sets were matrix matched […]
for analysis. The samples were centrifuged (15 minutes, 3400 g) and supernatants were transferred to a fresh plate for analysis. The unbound concentration (Cu), and the total concentration (CED) were determined by measurement of the concentration of the test compound in the buffer and plasma compartments of the dialysis cells, respectively. The fraction unbound was calculated using Eq. S1.
fuplasma = Cu/CED (Eq. S1)
The percentage recovery was calculated as the ratio of the sum of the amount in the buffer (Au) and plasma (AED) compartments to the amount at time zero (A0) (Eq. S2). The percentage stability was calculated as the ratio of the concentration of the test compound at the end of the incubation (C t) time […]
% recovery = (( Au + AED ) / A0 ) × 100 (Eq. S2)

[2] = cited from earlier work
[3] = Cytosolic binding (fucyt), human liver cytosol with AO inhibitor; settings: 1 mg/mL; n=3, mean (CV%)
[4] = Cytosolic binding (fucyt), dog liver cytosol; settings: 1 mg/mL, n=3, mean (CV%)
Description: In vitro data were generated to inform the PBPK models of the selected drugs (Supplement 1 in Appendix S1; Table S1). Subcellular fractions of human and dog liver were sourced from XenoTech (Kansas City, KS, USA). In vitro CLint,u was measured with substrate depletion and binding assays for all compounds (1 μM) in human liver microsomes (HLM; 0.25–0.5 mg/mL) and HLC (1 mg/mL). HLC pool was prepared from livers perfused with Custodiol HTK (histidine tryptophan ketoglutarate) solution, marketed as having preserved “high AO/XO activity.”[15] Dog liver cytosols (DLC; 1 mg/mL) were used to investigate cytosolic binding in the absence of AO. Routine in vitro assays were used to quantify unbound fraction in plasma (fup), blood‐to‐plasma ratio (B/P), and apparent permeability (Papp) through transwell transport assays utilizing canine Mdr1 knockout and empty vector‐transfected MDCKI cells.
𝐶𝐿 = 𝑘 × 𝑣𝑜𝑙𝑢𝑚𝑒 𝑜𝑓 𝑖𝑛𝑐𝑢𝑏𝑎𝑡𝑖𝑜𝑛 (Eq S9)
Cytosolic binding (fucyt):
The fraction unbound in human liver cytosols (fucyt) of compounds was determined by equilibrium
dialysis using the RED device (Thermo Fisher, Waltham MA, USA) with a molecular weight cut-off of
8 kDa. Dog or human liver cytosols at 1 mg/mL with 1 µM of compounds (300 µL, n=3 per compound)
were added to the donor compartment in 100 mM potassium phosphate buffer with final DMSO
liver cytosols to inactivate AO, whereas dog was used as a natural AO knock-out model. 500 µL of 100
mM potassium phosphate buffer (pH 7.35) was added to the receiver chamber for each replicate.
RED device was then sealed with an adhesive foil and incubated on an orbital shaker at 450 rpm (VWR
Symphony) at 37°C with 5 % CO2. After reaching equilibrium for 4 hours, aliquots from both the
receiver (30µL) and donor (30µL) sides of the membrane were matrix matched, and then quenched with
180 µL of cold ACN with 100 nM propranolol (internal standard). The samples were placed in a
Beckman Coulter Allegra x 12R Centrifuge (Brea, CA) for 15 minutes at 3700 rpm. After centrifugation,
the supernatant of each sample was diluted 1:2 and analyzed by LC -MS/ MS. Matrix stability and
recovery were assessed in triplicates and followed identical sample preparation.
Microsomal binding (fumic):
(§1) The fraction unbound in human liver microsomes (fumic) of compounds was determined by equilibrium
(§2) dialysis using the high-throughput dialysis method 2 using membranes from HTDialysis, LLC (Gales
(§3) Ferry, CT) having 12 to 14 kDa molecular mass cutoff. Deactivated HLM (by leaving the HLM
(§4) incubation media on the bench overnight at ambient temperature) at 0.25 mg/mL with 2 µM of
(§5) compounds (a final concentration of DMSO as 1%) was added to the donor compartment in 50 mM
(§6) phosphate buffer containing 1 M MgCl2. (150 µL, n=4 per compound). 150 µL of Dulbecco’s PBS
(§7) buffer (pH 7.4) was added to the receiver chamber for each replicate. After reaching equilibrium for 6
(§8) h on a plate shaker (200 rpm) at 37°C in a humidified CO2 incubator (5% CO2), aliquots from both the
(§9) receiver (45 µL) and donor (15 µL) sides of the membrane were matrix matched and analyzed by LC-
(§10) MS/MS. Matrix stability (n=3) and % of recovery (n=4) were assessed.
(§11) Data analysis for binding in microsomal and cytosolic incubations:
(§12) Fraction unbound in microsomal (fumic) and cytosolic (fucyt) incubations were calculated via Eq. S10-11
(§13) based on the ratio of the peak areas of analyte and internal standard.
(§14) 𝑃𝑒𝑎𝑘 𝐴𝑟𝑒𝑎 𝑅𝑎𝑡𝑖𝑜 = (𝑃𝑒𝑎𝑘 𝐴𝑟𝑒𝑎 𝑜𝑓 𝐴𝑛𝑎𝑙𝑦𝑡𝑒)/(𝑃𝑒𝑎𝑘 𝐴𝑟𝑒𝑎 𝑜𝑓 𝐼𝑛𝑡𝑒𝑟𝑛𝑎𝑙 𝑆 tan 𝑑 𝑎𝑟𝑑) (Eq. S10)
(§15) 𝑓𝑢𝑚𝑖𝑐 𝑜𝑟 𝑓𝑢𝑐𝑦𝑡 = (𝑃𝑒𝑎𝑘 𝐴𝑟𝑒𝑎 𝑅𝑎𝑡𝑖𝑜 𝑖𝑛 𝑟𝑒𝑐𝑒𝑖𝑣𝑒𝑟 𝑐𝑜𝑚𝑝𝑎𝑟𝑡𝑚𝑒𝑛𝑡)/
(§16) concentration (0.5 mg/mL) using Hallifax and Houston algorithm (Hallifax and Houston, 2006). Matrix
(§17) stability and recovery were assessed using Eq. S12 and Eq. S13.
(§18) %𝑠𝑡𝑎𝑏𝑖𝑙𝑖𝑡𝑦 = (𝐴𝑣𝑒𝑟𝑎𝑔𝑒 𝑝𝑒𝑎𝑘 𝑎𝑟𝑒𝑎 𝑖𝑛 𝑚𝑎𝑡𝑟𝑖𝑥 𝑎𝑡 𝑡ℎ𝑒 𝑒𝑛𝑑 𝑜𝑓 𝑖𝑛𝑐𝑢𝑏𝑎𝑡𝑖𝑜𝑛)/
(§19) (𝐴𝑣𝑒𝑟𝑎𝑔𝑒 𝑝𝑒𝑎𝑘 𝑎𝑟𝑒𝑎 𝑎𝑡 𝑇 = 0) × 100 (Eq. S12)
%𝑟𝑒𝑐𝑜𝑣𝑒𝑟𝑦 = (𝐴 + 𝐵)/𝐶 × 100 (Eq. S13)
(§20) where A is the average peak area ratio of all matrix samples, B is the average peak area ratio

[5] = Microsomal clearance incubations (substrate depletion); settings: both, human
Description: Subcellular fractions of human and dog liver were sourced from XenoTech (Kansas City, KS, USA). In vitro CLint,u was measured with substrate depletion and binding assays for all compounds (1 μM) in human liver microsomes (HLM; 0.25–0.5 mg/mL) and HLC (1 mg/mL).
Microsomal clearance incubations (CLint):
Human liver microsomes were stored at −80°C and rapidly thawed just before use at 37°C.
All compounds were mixed with HLM and 50 mM
phosphate buffer. 450 µL of the mixture was added to 1.2mL cluster tubes in a 96-well block in
duplicate and warmed in a water bath (Thermo Scientific Precision™,Waltham MA, USA ) at 37°C for
5 min. Reactions were initiated by the addition of 50 µL from 10 mM of NADPH stock in 50 mM
phosphate buffer (final NADPH concentration, 1 mM). The final incubation contained 1 µM test
compound in 500 µL total volume with 0.02% DMSO. At each time point (5, 10, 20, 30, and 60 min),
60 µL of incubation mixture was added to 120 uL of quench solutions (MeOH:ACN, 1:1, v:v)
containing internal standard (0.5 µM carbutamide). The mixture was centrifuged at 3000 rpm for 20
min (Eppendorf 5810R, Hamburg, Germany). Supernatant was injected to HPLC-MS/MS with for data
Data analysis for substrate depletion assays:
Data from the microsomal and cytosolic incubations were analyzed using GraFit 7 (Erithacus Software,
Horley, UK) to determine the elimination rate constant (k), which was used in CLint calculation (Eq.
S9). A nonlinear single exponential fit was used for all compounds.
𝐶𝐿 = 𝑘 × 𝑣𝑜𝑙𝑢𝑚𝑒 𝑜𝑓 𝑖𝑛𝑐𝑢𝑏𝑎𝑡𝑖𝑜𝑛 (Eq S9)

[6] = cited from earlier work; remark: listed apart in the source
[7] = Microsomal binding (fumic); settings: for fumic (PBPK input): at incubation protein concentration (0.25 or 0.5 mg/mL)
Description: Microsomal binding (fumic):
as §1, §2, §3, §4, §5, §6, §7, §8, §9, §10, §11, §12, §13, §14, §15, §16, §17, §18, §19
%𝑟𝑒𝑐𝑜𝑣𝑒𝑟𝑦 = (𝐴 + 𝐵)/𝐶 × 100 (Eq. S13)
as §20
of all buffer samples multiplied with the buffer dilution factor and C is the average peak area ratio of

[8] = cited from earlier work; for fmCYP3A4: ref suppl. 8-12; for fmAO: ref suppl. 8-13
[9] = cited from earlier work; for logP: octanol-water, 12 (per cell)
[10] = In vitro permeability (Papp), transwell transport; settings: dog, MDCK
[11] = Blood-to-plasma ratio (B/P); assay type: in vitro ADME, human
Description: Determination of blood to plasma ratio (B/P):
Whole human blood was collected on the day of the experiment from healthy volunteers. The collection protocol was approved by an independent ethical committee and all donors signed the consent forms. All samples were registered in the Janssen Biobank.
Prewarmed blood aliquots were mixed with the compounds (final concentrations shown in Suppl. Table 5) with a final organic DMSO solvent concentration of ≤0.1% (v/v). After gentle mixing to avoid haemolysis, blood aliquots were immediately collected for protein precipitation (1:1:8 ratios of blood sample:DMSO:ACN) and centrifugation (10 minutes, 3800 g) and the supernatant was used as a 0-minute reference blood sample. At the same time, blood aliquots were taken and centrifuged (10 minutes, 1200 g) to obtain the plasma portion. Plasma aliquots were then immediately collected for protein precipitation (1:1:8 ratios of plasma sample:DMSO:ACN) and centrifugation (10 minutes, 3800 g) and the supernatant was used as a 0-minute reference plasma sample. The remainder of the blood fraction was incubated (30 min at 37 °C). Following incubation, 30 -minute blood and plasma samples were taken and prepared as described for the reference 0-minute samples.
Mean compound concentration values (n=3 replicates) were calculated for both the blood and plasma samples. A blood-to-plasma concentration ratio was then determined using Eq. S4. […]

CYP3A4 = settings: cited from earlier work
[12] = parameters: method as in earlier work; settings: menadione 100 µM; ref 45 (suppl.); cited from earlier work
[13] = iv: zaleplon 5 mg (M), observed, ref suppl. 22
[14] = iv: zaleplon 5 (F), ziprasidone 5, zoniporide 80 mg, observed, ref suppl. 22,23,13
[15] = observed, ref Table S2/S3 studies
[16] = oral: capmatinib 200, idelalisib 150, lenvatinib 10, zaleplon 5 (F), ziprasidone 20 mg, observed mean or geomean (CV%), ref suppl. 8,14,16,19,22,23
[17] = oral: capmatinib 200, idelalisib 150, lenvatinib 10, zaleplon 5 (F), ziprasidone 20 mg, observed, ref suppl. 8,14,16,19,22,23
[18] = oral: capmatinib 600, zaleplon 5 (M) mg, observed, ref suppl. 8,22
[19] = corrected with Hallifax&Houston algorithm
[20] = observed (mass balance), min-max where uncertain
[21] = DDI study with rifampicin (capmatinib 400, idelalisib 150, lenvatinib 24 mg) or carbamazepine (ziprasidone 20 mg), observed, ref suppl. 15,18,21,25
[22] = with itraconazole (capmatinib 200 mg) or ketoconazole (idelalisib 400, lenvatinib 5, ziprasidone 40 mg), observed, ref suppl. 15,10,17,20,24
[23] = with rifampicin (capmatinib 400, idelalisib 150, lenvatinib 24 mg) or carbamazepine (ziprasidone 20 mg), observed, ref suppl. 15,18,21,25

## CCN(C(C)=O)c1cccc(-c2ccnc3c(C#N)cnn23)c1 [Zaleplon]
[1]; 37°C, n=1, at 20h
  % Stability in plasma: 104%
[2]; [13]
  AUCinf: 71.7 (12) ng.h/mL
  Cmax: 61.4 (26.4) ng/mL
[2]; [14]
  AUCinf: 100 (24) ng.h/mL
  Cmax: 62.7 (23.8) ng/mL
[2]; [15]
  CLRenal: Negligible
[2]; [16]
  Cmax: 14.4 (38.9) ng/mL
[2]; [17]
  AUCinf: 31.4 (57.3) ng.h/mL
[2]; [18]
  AUCinf: 22.5 (45.8) ng.h/mL
  Cmax: 14.5 (45.5) ng/mL
[3]
  fucyt, Human Liver Cytosol with 5 uM Raloxifene: 0.846 (1.87)
  fucyt, Human Liver Cytosol with 50 uM Hydralazine: 1 (1.10)
[4]; no AO inhibitor
  fucyt, Dog Liver Cytosol: 1
[4]
  fucyt, Dog Liver Cytosol with 50 uM Hydralazine: 0.84 (3.63)
[5]; microsomes
  microsomal CLint at 1 µM: 5.95 µL/min/mg
[6]; with 25 μM hydralazine
  HH CLint, non-AO: 0.8[21] μL/min/10^6 hepatocytes
[7]
  fumic (PBPK input): 0.964
[7]; [19]
  Predicted fumic for 1 mg/mL: 0.932
[8]; [20]
  fmCYP3A4: 26-43
[8]; ref suppl. 9-11
  fmCYP3A4 (maximum): 0.43
  fmCYP3A4 (minimum): 0.26
[9]
  logP: 1.3[12]
[10]
  Papp A→B at 120 min, 5 µM: 38.9 ×10⁻⁶ cm/s
  Papp B→A at 120 min, 5 µM: 32.5 ×10⁻⁶ cm/s

## O=C1Cc2cc(CCN3CCN(c4nsc5ccccc45)CC3)c(Cl)cc2N1 [Ziprasidone]
[1]; male, human, plasma, 20 h, 1 µM
  % Stability in plasma: 96.2%
[2]; i.v., ref Table S2/S3 studies
  CLiv/oral [CV%]: 23.04 [14] (i.v.) L/h
[2]; [14]
  AUCinf: 217 (20) ng.h/mL
  Cmax: 83 (21) ng/mL
[2]; [15]
  CLRenal: Negligible
[2]; [16]
  Cmax: 64 (28) ng/mL
[2]; [17]
  AUCinf: 514 (27) ng.h/mL
[11]; 50 ng/mL
  B/P: 0.44
[11]; 1000 ng/mL
  B/P: 0.47
[11]; assumed from measured 0.455
  B/P (assumed PBPK input): 0.55
[3]
  fucyt, Human Liver Cytosol with 5 uM Raloxifene: 0.337 (4.82)
  fucyt, Human Liver Cytosol with 50 uM Hydralazine: 0.356 (2.53)
[4]
  fucyt, Dog Liver Cytosol with 50 uM Hydralazine: 0.288 (3.81)
[5]; liver microsomes
  microsomal CLint at 1 µM: 71.9 µL/min/mg
[6]; without inhibitor
  HH CLint (no reaction phenotyping): 21.8[5], ^f μL/min/10^6 hepatocytes
[7]
  fumic (PBPK input): 0.210
[7]; [19]
  Predicted fumic for 0.5 mg/mL: 0.118
  Predicted fumic for 1 mg/mL: 0.063
[8]; measured in excreta
  fmAO: 0.67
[8]; observed (mass balance), min-max where uncertain, Table S10
  fmAO: 67
[8]; [20]
  fmCYP3A4: 33
[8]
  fmCYP3A4: 0.33
[9]; 47 (per cell)
  pKa1: 8.24[12]
  pKa2: 6.31[12]
[9]
  logP: 4.53[12]
[10]
  Papp A→B at 120 min, 5 µM: 3.15 ×10⁻⁶ cm/s
  Papp B→A at 120 min, 5 µM: 0.843 ×10⁻⁶ cm/s
  efflux ratio at 120 min, 5 µM: 0.268
CYP3A4; DDI study with itraconazole (capmatinib 200 mg) or ketoconazole (idelalisib 400, lenvatinib 5, ziprasidone 40 mg), observed geomean (CV%), ref suppl. 15,10,17,20,24
  Cmax, control: 89 (30) ng/mL
CYP3A4; DDI study with itraconazole (capmatinib 200 mg) or ketoconazole (idelalisib 400, lenvatinib 5, ziprasidone 40 mg), observed, ref suppl. 15,10,17,20,24
  AUCinf, control: 899 (20) ng.h/mL
CYP3A4; [21]
  AUCinf, control (AUC0-12 for ziprasidone): 495 (26) ng.h/mL
  Cmax, control: 79 (24) ng/mL
CYP3A4; [22]
  AUCinf, interaction: 1199 (18) ng.h/mL
  Cmax, interaction: 119 (25) ng/mL
CYP3A4; [23]
  AUCinf, interaction (AUC0-12 for ziprasidone): 285 (28) ng.h/mL
  Cmax, interaction: 48 (27) ng/mL

## CC1=CC(=O)c2ccccc2C1=O [menadione]
[12]
  inhibition of ziprasidone reduction: 90%

— publication PMC11706420, “Establishing a physiologically based pharmacokinetic framework for aldehyde oxidase and dual aldehyde oxidase‐CYP substrates” (CPT: Pharmacometrics & Systems Pharmacology, 2024)
